Data set [1] in a line: Stability test in RPMI 1640 culture medium, HPLC. The conditions noted are these: 0.1 mM in RPMI, 37° C., pH around 8.
Procedure: The stability of 1 with (−)-EGCG in a culture medium (RMPI) is compared, which mimics the body fluid with a pH value around 8. (−)-EGCG or 1 at 0.1 mM was incubated in 1 mL RMPI at 37° C. at indicated times. At different time points, the medium was analyzed by HPLC for the amount of tested compound remaining.
Data set [2] has as its target T1, purified rabbit 20s proteasome (Oryctolagus cuniculus, UniProt G1T4Q9).
T1 construct: purchased Boston Biochem (Cambridge, Mass.)
T1 sequence (G1T4Q9 1-263): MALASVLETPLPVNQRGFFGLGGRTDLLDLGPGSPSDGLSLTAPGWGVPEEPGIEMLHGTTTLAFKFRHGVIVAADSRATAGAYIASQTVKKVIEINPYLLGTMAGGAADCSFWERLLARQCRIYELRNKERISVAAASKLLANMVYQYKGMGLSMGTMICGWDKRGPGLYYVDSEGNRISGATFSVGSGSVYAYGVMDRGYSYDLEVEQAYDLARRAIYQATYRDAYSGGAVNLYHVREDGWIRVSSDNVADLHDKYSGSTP
Put plainly: Inhibition of chymotrypsin-like activity of purified 20S proteasome. Type of data set: biochemical. As for the experimental part:
Measurement of the chyrnotrypsin-like activity of the 20s proteasome was performed by incubating 0.5 μg of purified rabbit 20s proteasome with 40 μM fluorogenic peptide substrate, Suc-Leu-Leu-Val-Tyr-AMC, with or without various concentrations of natural and synthetic tea polyphenols as described previously (Nam S et. al.).
In order to test this hypothesis, proteasome activity was tested both in vitro and in intact Jurkat T cells with either 1 or (−)-EGCG (as a positive control). First, 1 and commercial (−)-EGCG were dissolved in DMSO and their effects on the chymotrypsin-like activity of purified 20S proteasomes were measured. […] In contrast, (−)-EGCG at 10 μM inhibited 80-90% of the proteasomal chymotrypsin-like activity. Therefore, as predicted, 1 outside of a cellular system is not a proteasome inhibitor.
Up to 25 μM of all protected and unprotected compounds were incubated with a purified 20s proteasome and a fluorogenic substrate for chyrnotrypsin activity for 30 min. The half-maximal inhibitory concentration or IC50 was then determined. […] This is consistent with the results above.

Data set [3] concerns the target 20S prokaryotic proteasome (UniProt Q9P992). Put plainly: Table 2: effects of tea polyphenols on 20S prokaryotic proteasome activities. Type of data set: biochemical. Particulars: Table 2, This work. On the procedure:
To further examine the effects of B-ring —OH group deletion on proteasome-inhibitory and cell death-inducing abilities, we synthesized several novel EGCG analogs with eliminated —OH groups on the B-ring as well as their putative prodrugs, the peracetate-protected counterparts. By using a purified 20S proteasome and a chymotrypsin-like fluorogenic substrate, the proteasome-inhibitory effects of the following unprotected polyphenol analogs are determined: […]

The conditions of data set [4]: rats given 56 mg orally; cited from earlier work.
The target in data set [5] is T2, proteasomal chymotrypsin-like activity in Jurkat T cells (Homo sapiens, UniProt P28074).
T2 construct: measurement of the proteasomal chymotrypsin-like activity in the prepared lysates; endogenous in cells; host or cells: Jurkat T cells (human leukemia)
T2 sequence (P28074 60-263): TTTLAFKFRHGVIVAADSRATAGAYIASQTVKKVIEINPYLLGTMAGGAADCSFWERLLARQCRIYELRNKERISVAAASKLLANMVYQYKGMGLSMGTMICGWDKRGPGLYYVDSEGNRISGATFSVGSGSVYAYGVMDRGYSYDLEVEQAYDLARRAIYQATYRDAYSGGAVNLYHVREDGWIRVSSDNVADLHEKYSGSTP
Put plainly: Proteasomal chymotrypsin-like activity in intact Jurkat T cells / their lysates. The class given is cell-based. Particulars: 24 h, Jurkat T. As for the experimental part:
VA-13 or WI-38 cells were grown in 24 well plates (2 ml/well) to 70-80% confluency, followed by 24 h treatment with […] (−)-EGCG, 2, or 2a. […] Suc-Leu-Leu-Val-Tyr-AMC substrate was then added for 2.5 h at 37° C. and the chyrnotrypsin-like activity was measured as described above. Alternatively, cells were treated with each compound at 25 μM for 4 or 24 h, and harvested and lysed. Suc-Leu-Leu-Val-Tyr-AMC (40 μM) was then incubated with the prepared cell lysates for 2.5 h and the chymotrypsin-like activity was measured as described above.
If 1 converts to (−)-EGCG inside the cells, proteasome inhibition in vivo should be detected. To examine this possibility, human Jurkat cells was treated with 25 μM of 1 or (−)-EGCG for 12 or 24 h, followed by measurement of proteasome activity by using a chymotrypsin-like specific fluorogenic substrate in intact cells (FIG. 6a) or Western blot for ubiquinated proteins (FIG. 6b). […] To analyze the intracellular level of polyubiquitinated proteins, cells were lysed after 12 hours incubation and subjected to Western blotting. […] It is possible that the amount of EGCG generated from 1, and thus its biological activity inside the cells depends on a combination of factors: the relative permeability of 1 into the cells, the amount of esterase enzymes and the amount of anti-oxidants that may be present in the cells at any time.
To determine whether the unprotected and protected polyphenol analogs could inhibit the proteasomal activity in intact cells, leukemia Jurkat T cells were treated with each compound at 25 μM for 4 and 24 h, followed by collection of cell pellets and measurement of the proteasomal chymotrypsin-like activity in the prepared lysates.

The next data set has as its system VA-13 cells. Put plainly: Nuclear staining (Hoechst) for apoptotic morphology, VA-13. The class given is cell-based, human. The conditions noted are these: 25 μM. As for the experimental part:
After each drug treatment, both detached and attached VA-13 and WI-38 cells were stained Hoechst 33342 to assess for apoptosis. Briefly, cells were washed 2× in PBS, fixed for 1 h with 70% ethanol at 4° C., washed 3× in PBS, and stained with […] Hoechst for 30 min in the dark at room temperature. Detached cells were plated on a slide and attached cells were visualized on the plate with a fluorescent microscope at 10× or 40× resolution (Zeiss, Germany). Digital Scientific obtained images with AxioVision 4.1 and adjusted using Adobe Photoshop 6.0.
Next, apoptotic nuclear morphology is examined after treatment with natural (−)-EGCG, 2, and 2a (FIG. 12B). […] A comparison among all the protected analogs was then performed using 25 μM for 24 h. […] All of the protected analogs induced apoptosis in transformed (VA-13), but not normal (WI-38) cells (FIGS. 12B and 12C).

Data set [6] has as its system LNCaP cells. Put plainly: Apoptotic morphological changes, phase contrast. Type of data set: cell-based, human. The conditions noted are these: 25 μM, 24 h.
For data set [7], the system named is phosphorylated Akt (p-Akt). The data set is described as follows: Western blot for phosphorylated Akt in Jurkat T cells. Type of data set: cell-based, human. Particulars: 25 μM, 24 h. As for the experimental part: (−)-EGCG and 1 were incubated with Jurkat T cells for 24 h at 5, 10 and 25 μM, followed by Western blot analysis using a specific antibody to phosphorylated Akt (FIG. 7). […] Actin was used as a loading control.

In another data set the test system is YT cells. Put plainly: Western blot in non-transformed natural killer YT cells compared with Jurkat T cells. The conditions noted are these: 25 μM, 24 h. Type of data set: cell-based, human.
Data set [8] concerns LNCaP cells. The data set is described as follows: Soft agar colony formation assay. The class given is cell-based, human. Particulars: 25 μM once at plating, 21 days.
In the next data set the test system is Jurkat T cells. Put plainly: Trypan blue cell death assay in Jurkat T cells. Type of data set: cell-based, human. Particulars: 10 μM, 24 h.
For data set [9], the system named is caspase-3 activity in Jurkat T cells. The data set is described as follows: Induction of caspase-3 activity (Ac-DEVD-AMC) in Jurkat T cells. Type of data set: cell-based, human. Particulars: 25 μM, 4 h. As for the experimental part:
Cells were treated with each compound at 25 μM for 4 or 24 h, and then harvested and lysed. Ac-DEVD-AMC (40 μM) was added to the cell lysates for 2.5 h and the caspase-3 activity.
To determine if the cell death observed (FIG. 16) was due to the induction of apoptosis, a similar experiment was performed in Jurkat T cells, followed by measurement of caspase-3 activation and PARP cleavage.

The mark [10] stands for this setting: Suc-Leu-Leu-Val-Tyr-AMC, 2 h incubation, Table 1, read-out: IC50 (μM), unprotected.

Where two headings read alike, the source gives them in different places.

Chain of 20S prokaryotic proteasome (Q9P992 whole entry): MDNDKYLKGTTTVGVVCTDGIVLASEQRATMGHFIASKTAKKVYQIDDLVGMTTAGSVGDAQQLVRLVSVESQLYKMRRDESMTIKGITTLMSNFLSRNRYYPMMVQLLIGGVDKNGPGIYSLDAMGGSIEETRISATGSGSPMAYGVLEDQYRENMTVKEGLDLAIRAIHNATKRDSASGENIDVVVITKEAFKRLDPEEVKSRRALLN

Regarding `O=C(O[C@@H]1Cc2c(O)cc(O)cc2O[C@@H]1c1cc(O)c(O)c(O)c1)c1cc(O)c(O)c(O)c1` [(−)-EGCG, (−)-epigallocatechin-3-gallate, reference compound], in [1], the “time within which compound degraded in culture medium” value was no more than 20 min. The inhibition at 10 µM in data set [2] (10 μM, purified 20S proteasome, read-out: inhibition of proteasomal chymotrypsin-like activity) is 80 to 90%. The IC50 came out at 0.3 µM in [2] (setting [10]); 0.2 µM in [2] (up to 25 μM, 30 min incubation, read-out: IC50); 300 nM in data set [3]. The “fraction of (−)-EGCG absorbed” value in [4] is reported as 0.012%. In addition, in [5] (Jurkat, read-out: inhibition of proteasome activity in intact cells), the inhibition at 25 µM turned out to be 31%. For the same compound, the apoptotic nuclear morphology result in the data set on VA-13 cells (24 h) is given as “little or no apoptosis”; with VA-13 cells (36 h), “did initiate apoptosis”. Also, the apoptotic morphological changes entry in the data set on LNCaP cells [6] is given as “enlarged, flattened cells”. Besides, the “reduction of p-Akt level (densitometry)” value in data set [7] was 32%. For the same compound, in the data set with YT cells, the “apoptosis (PARP cleavage), Jurkat T versus YT cells” value is listed as “only Jurkat cells underwent apoptosis”. Moreover, the “colony formation in soft agar” value with LNCaP cells [8] is “significant decrease in colony formation”. Further, the cell death in the data set with Jurkat T cells is 5%.

Consider `O=C(O[C@@H]1Cc2c(O)cc(O)cc2O[C@@H]1c1ccc(O)cc1)c1cc(O)c(O)c(O)c1` [Compound 6, (−)-(2R,3R)-5,7-dihydroxy-2-(4-hydroxyphenyl)chroman-3-yl 3,4,5-trihydroxybenzoate], for which the IC50 in data set [2] (setting [10]) was found to be 2.69 µM; in [3], 2690 nM. The “inhibition of chymotrypsin-like activity in lysates of treated cells” value in data set [5] (25 μM) was determined as 30%. The “increase in caspase-3 activity” value in [9] worked out at 4 fold.
